Measured values taken from ChEMBL document CHEMBL5143564, “PES derivative PESA is a potent tool to globally profile cellular targets of PES” (Bioorg Med Chem Lett, 2022).
Activity calls are given as the source filed them. The calls are words filed in the database; no cut-off is given here.

Experiments:
[1] = biological target: T1, Glutathione S-transferase omega-1 (Homo sapiens) (UniProt P78417); assay: Binding affinity to GSTO1 in human MDA-MB-453 cells measured after 6 hrs by pull-down assay; assay type: cell-based; details: dose <= 20.0 µM, DDE = dose-dependent effect
T1 sequence (whole entry): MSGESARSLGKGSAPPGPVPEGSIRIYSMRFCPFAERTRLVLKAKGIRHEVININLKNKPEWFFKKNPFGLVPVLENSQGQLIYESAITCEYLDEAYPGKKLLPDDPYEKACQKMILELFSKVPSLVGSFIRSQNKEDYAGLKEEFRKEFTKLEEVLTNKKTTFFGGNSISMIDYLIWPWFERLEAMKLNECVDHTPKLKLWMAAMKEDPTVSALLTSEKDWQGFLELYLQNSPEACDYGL

[2] = biological target: Tubulin alpha (Homo sapiens) (UniProt P0DPH7+P68366+Q71U36+P68363+Q9BQE3+Q6PEY2+A6NHL2+Q9NY65); assay: Binding affinity to alpha-tubulin in human DOHH-2 cells by MS analysis; assay type: cell-based
DOHH-2 [3] = assay: Induction of autophagy in human DOHH-2 cells assessed as change in transformation of LC3B1 to LC3B2 expression at 0.5 to 8 uM measured after 24 hrs by Western blot analysis; assay type: functional, cell-based; details: dose 0.5-8 µM
[4] = biological target: Elongation factor 2 (Homo sapiens) (UniProt P13639); assay: Binding affinity to elongation factor 2 in human MDA-MB-453 cells measured after 6 hrs by pull-down assay; assay type: cell-based; details: dose <= 20.0 µM, DDE = dose-dependent effect
Homo sapiens [5] = species on record: Homo sapiens; assay: Binding affinity to human HSP70 SBDalpha domain (537 to 610 residues) C574S mutant assessed as Cys603 adduct formation by size exclusion chromatography
DOHH-2 [6] = assay: Cytotoxicity against human DOHH-2 cells measured after 72 hrs; assay type: functional, cell-based
[7] = biological target: T2, Thioredoxin-dependent peroxide reductase, mitochondrial (Homo sapiens) (UniProt P30048); assay: Binding affinity to PRDX3 in human MDA-MB-453 cells measured after 6 hrs by pull-down assay; assay type: cell-based; details: dose <= 20.0 µM, DDE = dose-dependent effect
T2 sequence (whole entry): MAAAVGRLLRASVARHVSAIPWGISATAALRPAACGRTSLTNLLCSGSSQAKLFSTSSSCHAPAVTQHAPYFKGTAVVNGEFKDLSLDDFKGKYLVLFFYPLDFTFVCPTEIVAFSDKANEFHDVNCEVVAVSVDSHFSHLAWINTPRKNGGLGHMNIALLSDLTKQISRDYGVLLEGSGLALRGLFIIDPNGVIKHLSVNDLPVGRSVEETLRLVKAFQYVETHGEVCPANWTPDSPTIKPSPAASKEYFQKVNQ

[8] = biological target: T3, Peroxiredoxin-6 (Homo sapiens) (UniProt P30041); assay: Binding affinity to PRDX6 in human MDA-MB-453 cells measured after 6 hrs by pull-down assay; assay type: cell-based; details: dose <= 20.0 µM, DDE = dose-dependent effect
T3 sequence (whole entry): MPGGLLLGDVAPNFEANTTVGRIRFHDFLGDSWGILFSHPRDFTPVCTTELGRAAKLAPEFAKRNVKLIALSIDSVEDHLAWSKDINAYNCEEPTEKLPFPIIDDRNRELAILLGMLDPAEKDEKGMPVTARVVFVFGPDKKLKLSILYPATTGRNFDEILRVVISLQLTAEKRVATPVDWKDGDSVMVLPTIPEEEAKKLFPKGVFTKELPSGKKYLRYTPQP

[9] = biological target: Glutathione S-transferase P (Homo sapiens) (UniProt P09211); assay: Binding affinity to GSTP1 in human MDA-MB-453 cells measured after 6 hrs by pull-down assay; assay type: cell-based; details: dose <= 20.0 µM, DDE = dose-dependent effect
[10] = biological target: T1, Glutathione S-transferase omega-1 (Homo sapiens); assay: Binding affinity to GSTO1 in human DOHH-2 cells measured after 6 hrs by pull-down assay; assay type: cell-based; details: DDE = dose-dependent effect
Homo sapiens [11] = species on record: Homo sapiens; assay: Binding affinity to ADP-bound full-length human HSP70 assessed as Cys574 adduct formation at SBDalpha domain by LC-MS/MS analysis
[12] = biological target: Coronin-1A (Homo sapiens) (UniProt P31146); assay: Binding affinity to coronin-1A in human DOHH-2 cells by MS analysis; assay type: cell-based
[13] = biological target: T1, Glutathione S-transferase omega-1 (Homo sapiens); assay: Binding affinity to GSTO1 in human DOHH-2 cells by MS analysis; assay type: cell-based
Homo sapiens [14] = species on record: Homo sapiens; assay: Binding affinity to ADP-bound full-length human HSP70 assessed as Cys603 adduct formation by size exclusion chromatography
[15] = biological target: T4, Protein disulfide-isomerase A6 (Homo sapiens) (UniProt Q15084); assay: Binding affinity to PDIA6 in human DOHH-2 cells measured after 6 hrs by pull-down assay; assay type: cell-based; details: DDE = dose-dependent effect
T4 sequence (whole entry): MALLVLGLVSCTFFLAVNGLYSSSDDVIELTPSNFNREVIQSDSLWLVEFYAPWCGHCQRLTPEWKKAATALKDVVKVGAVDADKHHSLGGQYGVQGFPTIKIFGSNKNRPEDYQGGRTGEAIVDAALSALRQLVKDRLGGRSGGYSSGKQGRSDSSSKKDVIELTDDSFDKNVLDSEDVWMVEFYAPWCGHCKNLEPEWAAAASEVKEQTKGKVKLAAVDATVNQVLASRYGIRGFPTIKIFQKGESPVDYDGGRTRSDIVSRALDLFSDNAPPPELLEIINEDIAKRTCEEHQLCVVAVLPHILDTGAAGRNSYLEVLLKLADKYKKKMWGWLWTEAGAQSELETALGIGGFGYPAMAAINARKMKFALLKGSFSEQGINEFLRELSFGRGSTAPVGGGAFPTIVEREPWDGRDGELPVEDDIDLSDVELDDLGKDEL

[16] = biological target: Coronin-1A (Homo sapiens) (UniProt P31146); assay: Binding affinity to coronin-1A in human MDA-MB-453 cells measured after 6 hrs by pull-down assay; assay type: cell-based; details: dose <= 20.0 µM, DDE = dose-dependent effect
[17] = GSH reactivity in pH 7.4 buffer assessed as GSH adduct formation at 1 mM by HPLC analysis; assay type: physicochemical; details: pH 7.4, 1000 µM
HepG2 = assay: Cytotoxicity against human HepG2 cells measured after 72 hrs; assay type: functional, cell-based
HEK-293T = assay: Cytotoxicity against HEK293T cells up to 20 uM measured after 24 hrs; assay type: toxicity, cell-based; details: human
[18] = biological target: Elongation factor 2 (Homo sapiens) (UniProt P13639); assay: Binding affinity to elongation factor 2 in human DOHH-2 cells measured after 6 hrs by pull-down assay; assay type: cell-based; details: DDE = dose-dependent effect
[19] = biological target: Glutathione S-transferase P (Homo sapiens) (UniProt P09211); assay: Binding affinity to GSTP1 in human DOHH-2 cells by MS analysis; assay type: cell-based
[20] = biological target: T5, Peroxiredoxin-2 (Homo sapiens) (UniProt P32119); assay: Binding affinity to PRDX2 in human DOHH-2 cells measured after 6 hrs by pull-down assay; assay type: cell-based; details: DDE = dose-dependent effect
T5 sequence (whole entry): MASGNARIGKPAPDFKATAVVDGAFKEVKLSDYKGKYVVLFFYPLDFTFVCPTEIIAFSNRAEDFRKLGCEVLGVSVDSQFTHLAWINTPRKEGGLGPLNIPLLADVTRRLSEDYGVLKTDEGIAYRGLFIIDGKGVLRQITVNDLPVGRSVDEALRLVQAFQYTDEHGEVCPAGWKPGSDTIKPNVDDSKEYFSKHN

Sequence of Glutathione S-transferase P (Homo sapiens) (P09211 2-210 limits assumed): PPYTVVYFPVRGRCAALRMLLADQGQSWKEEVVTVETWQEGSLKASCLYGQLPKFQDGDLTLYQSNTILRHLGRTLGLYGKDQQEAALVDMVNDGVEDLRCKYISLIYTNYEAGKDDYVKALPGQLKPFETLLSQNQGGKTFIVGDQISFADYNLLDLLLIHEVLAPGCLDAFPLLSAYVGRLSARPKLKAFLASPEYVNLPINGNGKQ
Sequence of Coronin-1A (Homo sapiens) (P31146 whole entry): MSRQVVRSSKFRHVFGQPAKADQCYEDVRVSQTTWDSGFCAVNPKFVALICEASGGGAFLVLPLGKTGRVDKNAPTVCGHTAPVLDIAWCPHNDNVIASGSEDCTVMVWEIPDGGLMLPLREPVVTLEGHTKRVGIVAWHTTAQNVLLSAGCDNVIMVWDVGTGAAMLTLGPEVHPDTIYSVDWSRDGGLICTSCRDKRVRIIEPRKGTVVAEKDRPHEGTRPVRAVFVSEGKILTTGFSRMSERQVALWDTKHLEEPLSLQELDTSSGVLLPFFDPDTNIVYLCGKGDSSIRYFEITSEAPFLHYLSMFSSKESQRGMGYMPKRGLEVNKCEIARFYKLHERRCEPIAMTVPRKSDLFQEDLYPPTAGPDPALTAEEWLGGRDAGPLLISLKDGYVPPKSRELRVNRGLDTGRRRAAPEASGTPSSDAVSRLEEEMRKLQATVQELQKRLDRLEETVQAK

Question: What does the source list for `C#Cc1cccc(C#CS(N)(=O)=O)c1`?
Answer: Activity [1]: Dde; Activity [2]: Active; Activity (DOHH-2 [3]): Active; Activity [4]: Dde; Activity (Homo sapiens [5]): Active; Activity (DOHH-2 [6]): Active; Activity [7]: Dde; Activity [8]: Dde; Activity [9]: Dde; Activity [10]: Dde; Activity (Homo sapiens [11]): Active; Activity [12]: Active; Activity [13]: Active; Activity (Homo sapiens [14]): Active; Activity [15]: Dde; Activity [16]: Dde; Activity [17]: Active; Activity (HepG2): Active; Activity (HEK-293T): Non-Toxic; Activity [18]: Dde; Activity [19]: Active; Activity [20]: Dde
